Laboratory results published in US20220396565A1 (Hoffmann-La Roche Inc., priority 2020, published 2022).
Counter-ions that a name gives are not always drawn. Like-named read-outs stand apart in the source and are kept apart here.

System: Acinetobacter baumannii ATCC17961
Experiment: Antimicrobial susceptibility testing: 90% growth inhibitory concentration (IC90) determination, Iso-Sensitest broth
Assay type: cell-based
Method in brief: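 Growth at OD600 was monitored every 20 min for 16 h at 35±2 °C, with bacteria inoculated at ~5×10^(5) CFU/ml into Iso-Sensitest medium. Compounds were tested as 10-point twofold dilutions (e.g. 10–0.02 μM final). The 90% inhibitory concentration comes from the log-phase growth.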

[1] = Acinetobacter baumannii, ATCC17961, 90% growth inhibitory concentration, Acinetobacter baumannii ATCC17961, Iso-Sensitest broth, read-out: ATCC 17961 IC90
[2] = Acinetobacter baumannii, ATCC17961, read-out: ATCC 17961 IC90

Row | Compound | IC90 [1] | also measured
1 | CNCCNC(=O)C1CCN(C(=O)c2ccc(NC(=O)c3ncc(-c4ccc(OCC#N)c(F)c4F)n3C)cc2Cl)CC1 [Example 82, 1-(2-chloro-4-(5-(4-(cyanomethoxy)-2,3-difluorophenyl)-1-methyl-1H-imidazole-2-carboxamido)benzoyl)-N-(2-(methylamino)ethyl) piperidine-4-carboxamide formate] | – | IC90 [2]: 70 nM
2 | COc1ccc(-c2cnc(C(=O)Nc3ccc(C(=O)N4CCC(C(=O)N5CC(CCN)C5)CC4)c(Cl)c3)n2C)c(F)c1F [Example 40, N-[4-[4-[3-(2-aminoethyl)azetidine-1-carbonyl]piperidine-1-carbonyl]-3-chloro-phenyl]-5-(2,3-difluoro-4-methoxy-phenyl)-1-methyl-imidazole-2-carboxamide formate] | 70 nM | –
3 | COc1ccc(-c2cnc(C(=O)Nc3ccc(C(=O)N4CCN(CC5CCNC5)CC4)c(Cl)c3)n2C)c(F)c1F (stereo not drawn) [Example 291, N-[3-chloro-4-[4-(pyrrolidin-3-ylmethyl)piperazine-1-carbonyl]phenyl]-5-(2,3-difluoro-4-methoxy-phenyl)-1-methyl-imidazole-2-carboxamide formate] | – | IC90 [2]: 50 nM
4 | COc1ccc(-c2cnc(C(=O)Nc3ccc(C(=O)N4CCC(NC(=O)CCN(C)C)CC4)c(Cl)c3)n2C)c(F)c1F [Example 101, N-[3-chloro-4-[4-[3-(dimethylamino)propanoylamino]piperidine-1-carbonyl]phenyl]-5-(2,3-difluoro-4-methoxy-phenyl)-1-methyl-imidazole-2-carboxamide formate] | 50 nM | –
5 | Cn1c(-c2ccc(OC(F)F)c(F)c2F)cnc1C(=O)Nc1ccc(C(=O)N2CCC(C(=O)N[C@H]3[C@@H]4CNC[C@@H]43)CC2)c(Cl)c1 [Example 61, N-[(1S,5R)-3-azabicyclo[3.1.0]hexan-6-yl]-1-[2-chloro-4-[[5-[4-(difluoromethoxy)-2,3-difluoro-phenyl]-1-methyl-imidazole-2-carbonyl]amino]benzoyl] piperidine-4-carboxamide formate] | 60 nM | –
6 | Cc1cc(NC(=O)c2ncc(-c3ccc(OCC#N)c(F)c3F)n2C)ccc1C(=O)N1CCC(C(=O)N2CCO[C@H](CN)C2)CC1 [Example 83, (R)-N-(4-(4-(2-(aminomethyl)morpholine-4-carbonyl)piperidine-1-carbonyl)-3-methylphenyl)-5-(4-(cyanomethoxy)-2,3-difluorophenyl)-1-methyl-1H-imidazole-2-carboxamide 2,2,2-trifluoroacetate] | 170 nM | –
7 | CN1CCC(NNC(=O)C2CCN(C(=O)c3ccc(NC(=O)c4ncc(-c5ccc(OCF)c(F)c5F)n4C)cc3Cl)CC2)CC1 [Example 52, N-[3-chloro-4-[4-[[(1-methyl-4-piperidyl)amino]carbamoyl]piperidine-1-carbonyl]phenyl]-5-[2,3-difluoro-4-(fluoromethoxy)phenyl]-1-methyl-imidazole-2-carboxamide trifluoroacetate] | 130 nM | –
8 | Cn1c(-c2ccc(OCF)cc2F)cnc1C(=O)Nc1ccc(C(=O)N2CCN(C(=O)N3CC[C@@H](N)C3)CC2)c(Cl)c1 [Example 26, (R)-N-(4-(4-(3-aminopyrrolidine-1-carbonyl)piperazine-1-carbonyl)-3-chlorophenyl)-5-(2-fluoro-4-(fluoromethoxy)phenyl)-1-methyl-1H-imidazole-2-carboxamide formate] | 30 nM | –
9 | COc1ccc(-c2cnc(C(=O)Nc3ccc(C(=O)N4CCC(C(=O)N5CC(N)C5)CC4)c(Cl)c3)n2C)c(F)c1F [Example 33, N-[4-[4-(3-aminoazetidine-1-carbonyl)piperidine-1-carbonyl]-3-chloro-phenyl]-5-(2,3-difluoro-4-methoxy-phenyl)-1-methyl-imidazole-2-carboxamide trifluoroacetate] | 90 nM | –
10 | N-(azetidin-3- ylmethyl)-1-[2-chloro- 4-[[5-[4- (cyanomethoxy)-2,3- difluoro-phenyl]-1- methyl-imidazole-2- carbonyl]amino]benzoyl] piperidine-4- carboxamide trifluoroacetate [Example 264] | – | IC90 (90% growth inhibitory concentration, Acinetobacter baumannii ATCC17961, Iso-Sensitest broth, read-out: ATCC 17961 IC90): 90 nM

Second part, led by results:

Row | IC90 [1] | Compound | also measured
11 | 1300 nM | CN(C)CCN1CCN(C(=O)c2ccc(NC(=O)c3ncc(-c4ccc(Oc5ncccn5)c(F)c4F)n3C)cc2Cl)CC1 [Example 273, N-[3-chloro-4-[4-[2-(dimethylamino)ethyl]piperazine-1-carbonyl]phenyl]-5-(2,3-difluoro-4-pyrimidin-2-yloxy-phenyl)-1-methyl-imidazole-2-carboxamide trifluoroacetate] | –
12 | 110 nM | COc1ccc(-c2cnc(C(=O)Nc3ccc(C(=O)N4CCN(C(=O)CN5CC(O)C5)CC4)c(Cl)c3)n2C)c(F)c1F [Example 295, N-[3-chloro-4-[4-[2-(3-hydroxyazetidin-1-yl)acetyl]piperazine-1-carbonyl]phenyl]-5-(2,3-difluoro-4-methoxy-phenyl)-1-methyl-imidazole-2-carboxamide formate] | –
13 | 60 nM | COc1ccc(-c2cnc(C(=O)Nc3ccc(C(=O)N4CCC(NC(=O)CCN)CC4)c(Cl)c3)n2C)c(F)c1F [Example 103, N-[4-[4-(3-aminopropanoylamino)piperidine-1-carbonyl]-3-chloro-phenyl]-5-(2,3-difluoro-4-methoxy-phenyl)-1-methyl-imidazole-2-carboxamide formate] | –
14 | 100 nM | COc1ccc(-c2cnc(C(=O)Nc3ccc(C(=O)N4CCN(CC(N)=O)CC4)c(Cl)c3)n2C)c(F)c1F [Example 244, N-[4-[4-(2-amino-2-oxo-ethyl)piperazine-1-carbonyl]-3-chloro-phenyl]-5-(2,3-difluoro-4-methoxy-phenyl)-1-methyl-imidazole-2-carboxamide] | –
15 | 50 nM | COc1ccc(-c2cnc(C(=O)Nc3ccc(C(=O)N4CCC(NS(=O)(=O)C5CCNC5)CC4)c(Cl)c3)n2C)c(F)c1F (stereo not drawn) [Example 237, N-[3-chloro-4-[4-(pyrrolidin-3-ylsulfonylamino)piper-idine-1-carbonyl]phenyl]-5-(2,3-difluoro-4-methoxy-phenyl)-1-methyl-imidazole-2-carboxamide] | –
16 | 90 nM | Cn1c(-c2ccc(OCC#N)c(F)c2F)cnc1C(=O)Nc1ccc(C(=O)N2CCN(C(=O)[C@@H]3CCNC[C@H]3O)CC2)c(Cl)c1 [Example 227, N-(3-chloro-4-(4-((3S,4R)-3-hydroxypiperidine-4-carbonyl)piperazine-1-carbonyl)phenyl)-5-(4-(cyanomethoxy)-2,3-difluorophenyl)-1-methyl 1H-imidazole-2-carboxamide (S)-2-hydroxypropanoate] | –
17 | 70 nM | Cn1c(-c2ccc(OC(F)F)cc2F)cnc1C(=O)Nc1ccc(C(=O)N2CCN(C(=O)C[C@@H]3CCCN3)CC2)c(Cl)c1 [Example 159, N-[3-chloro-4-[4-[2-[(2S)-pyrrolidin-2-yl]acetyl]piperazine-1-carbonyl]phenyl]-5-[4-(difluoromethoxy)-2-fluoro-phenyl]-1-methyl-imidazole-2-carboxamide formate] | –
18 | 100 nM | COc1ccc(-c2cnc(C(=O)Nc3ccc(C(=O)N4C[C@@H]5CN(C(=O)C6CCNCC6)C[C@@H]5C4)c(Cl)c3)n2C)c(F)c1F [Example 186, N-[4-[(3aR,6aS)-5-(piperidine-4-carbonyl)-1,3,3a,4,6,6a-hexahydropyrrolo[3,4-c]pyrrole-2-carbonyl]-3-chloro-phenyl]-5-(2,3-difluoro-4-methoxy-phenyl)-1-methyl-idazole-2-carboxamide formate] | –
